Earlier results in US9763897B2, “Therapeutic astaxanthin and phospholipid composition and associated method” (U.S. NUTRACEUTICALS, LLC, priority 2010, dated 2017).
Values belong to the compound of their own block, whether it stands above or below them.

Assays:
[1] = tested on: LDL cholesterol oxidation; conditions: 4 mg astaxanthin per day for two weeks
[2] = tested on: C-Reactive Protein (C-RP)
LDL cholesterol = conditions: 3.6 mg astaxanthin per day for two weeks
[3] = tested on: pro-oxidant activity of Vioxx (membrane lipid per-oxidation); conditions: in vitro
lens epithelial cells = conditions: umol/L concentrations
[4] = 6 mg per day, eight weeks, healthy adults

- uptake relative to esterified astaxanthin (human plasma, versus esterified astaxanthin): 4-5 times
Compound: CC1=C(/C=C/C(C)=C/C=C/C(C)=C/C=C/C=C(C)/C=C/C=C(C)/C=C/C2=C(C)C(=O)[C@@H](O)CC2(C)C)C(C)(C)C[C@H](O)C1=O [free astaxanthin diol]

- negative effect of supplementation [4]: no negative effect
Compound: CC1=C(/C=C/C(C)=C/C=C/C(C)=C/C=C/C=C(C)/C=C/C=C(C)/C=C/C2=C(C)C(=O)[C@@H](O)CC2(C)C)C(C)(C)C[C@H](O)C1=O [Astaxanthin, 3,3′-dihydroxy-β-β-carotene-4,4′-dione]
- reduction of LDL cholesterol oxidation [1]: 26%
- decrease in C-reactive protein scores ([2]; 4 mg astaxanthin for eight weeks): 21%
- drop in serum C-RP levels ([2]; human subjects with high risk C-RP levels, three months of treatment): 43%
- protection of LDL cholesterol against induced in vitro oxidation (LDL cholesterol): protects LDL cholesterol against induced in vitro oxidation
- effect on pro-oxidant activity of Vioxx [3]: negate the pro-oxidant activity of Vioxx
- effect on UVB induced lipid per-oxidative mediated cell damage (lens epithelial cells): suppresses UVB induced lipid per-oxidative mediated cell damage

- relative absorption of astaxanthin compared to the other two isomers (men, Coral-Hinostroza et al. (2004)): higher relative absorption
Compound: CCCCCCCCCCCCCCCC(=O)O[C@H]1CC(C)(C)C(/C=C/C(C)=C/C=C/C(C)=C/C=C/C=C(C)/C=C/C=C(C)/C=C/C2=C(C)C(=O)[C@@H](OC(=O)CCCCCCCCCCCCCCC)CC2(C)C)=C(C)C1=O [3R,3′R-astaxanthin dipalmitate, (3R,3′R-astaxanthin dipalmitate, reference compound]
